Laboratory results: patent US8039505B2, “Compounds for modulating T-cells” (University of Utah Research Foundation, priority 2007, dated 2011)
Values joined by “and” are separate entries in the source; they are usually repeats but may differ in a detail not shown here. Equal entries are not always repeated.

Experiment: Pharmacokinetics in male Swiss Albino mouse, intravenous and oral (LC-MS/MS of plasma)
Format: in vivo
Conditions: for Individual plasma concentration: individual mice; for Mean plasma concentration: N = 3
Method: The pharmacokinetics of 1H-indole-3-carbaldehyde quinolin-8-ylhydrazone (Compound C3) was evaluated following intravenous (3 mg/kg) and oral (15 mg/kg) solution administration of 1H-indole-3-carbaldehyde quinolin-8-ylhydrazone in male Swiss Albino mouse. The effect of the Test Item, 1H-indole-3-carbaldehyde quinolin-8-ylhydrazone on complete blood count (CBC) was also evaluated. Pharmacokinetic phase consisted of two groups, Group 1 and Group 2. Animals in Group 1 were given intravenous bolus dose in a vehicle containing 5% N,N-dimethylacetamide, 5% CREMOPHOR™ EL and 90% Dextrose solution (5% w/v) and those in Group 2 were given oral solution dose in a vehicle, the composition of which was same as that of intravenous formulation. In addition, the effect of Test Item on complete blood count was evaluated following intravenous and oral dose administration along with its vehicle controls. A total of four groups were used each with 6 mice.
From the pharmacokinetic group, predose samples were collected from 3 animals in each group. Following dose administration terminal blood samples were collected at each of the following time points (in triplicate): 0.083 (only for intravenous), 0.25, 0.5, 1, 2, 4, 8, 12 and 24 hours. At each time point, approximately 500 μL of whole blood was withdrawn from the retro orbital sinus and collected in labeled tubes containing dipotassium EDTA as anticoagulant (20 μL of 200 mM K2 EDTA solution per mL of blood). Plasma was separated by centrifuging the whole blood at about 2500 g for 10 minutes at 4° C. within 1 h of sample collection. Separated plasma was stored below minus 50° C. until bioanalysis. A sensitive LC-MS/MS method was used for the quantitation of 1H-indole-3-carbaldehyde quinolin-8-ylhydrazone. The lower limit of quantitation was 1.04 ng/mL. For CBC evaluation, approximately 500 μL of blood was collected in labeled tubes containing dipotassium EDTA as anticoagulant (10 […]/mL of blood) after 48 h of dose administration from all animals.
A total of 57 mice were divided into an intravenous dose group of 30 mice (Group 1) and oral dose group of 27 mice (Group 2). Animals in Group 1 received intravenous bolus dose via tail vein at 3 mg/kg and animals in Group 2 received oral solution dose via gavage at 15 mg/kg. Three animals were administered the dose for each time point (intravenous: 10 time points; Oral: 9 time points). Terminal blood samples were collected from each mouse under light ether anesthesia and plasma was separated.
Animals in Group 1 were administered an intravenous bolus dose via the tail vein (dosing volume: 6 mL/kg). Animals in Group 2 received oral dose by gavage with an oral dosing needle (dosing volume: 10 mL/kg). Animals in the CBC evaluation group were treated same as above except the animals in control group received vehicle instead of formulation.
Pharmacokinetic group: Predose samples were collected from 3 animals in each group. Following dose administration terminal blood samples were collected at each of the following time points (in triplicate): 0.083 (only for intravenous), 0.25, 0.5, 1, 2, 4, 8, 12 and 24 hours. For each time point, approximately 500 μL of whole blood was withdrawn from the retro orbital sinus and collected in labeled tubes containing dipotassium EDTA as anticoagulant (20 μL of 200 mM K2 EDTA solution per mL of blood). Plasma was separated by centrifuging the whole blood at about 2500 g for 10 minutes at 4° C. within 1 h of sample collection. Separated plasma was stored below minus 50° C. until bioanalysis.
An LC-MS/MS method was developed and employed for the quantitation of 1H-indole-3-carbaldehyde quinolin-8-ylhydrazone in the mouse plasma samples. The samples were prepared for analysis following liquid-liquid extraction using amodiaquin as internal standard. The lower limit of quantitation was 1.04 ng/mL.
Pharmacokinetic parameters were calculated using non-compartmental analysis tool of WINNONLIN™ Enterprise software (Version 5.1.1). […]

[1] = mouse plasma, IV 3 mg/kg, 0.25 h samples, listed as ICQH, 3 mg/kg
[2] = mouse, intravenous bolus 3 mg/kg, 24 h, BLQ = below LLOQ 1.04 ng/mL
[3] = mouse, oral solution 15 mg/kg, 24 h, BLQ = below LLOQ 1.04 ng/mL

Accepted conc. (repeat analysis) [1]: 199.60 c ng/mL and 225.35 c ng/mL
Initial conc. (repeat analysis) [1]: 132.16 ng/mL
Repeated conc. (repeat analysis) [1]: 225.35 ng/mL
Clearance as share of liver blood flow (mouse, IV 3 mg/kg): about 60 % of liver blood flow
Volume of distribution (mouse, IV 3 mg/kg): 4.28 Ukg
Volume of distribution relative to total body water (mouse, IV 3 mg/kg): about 6 times of total body water
Time till which plasma concentrations were quantifiable (mouse, following both intravenous (3 mg/kg) and oral (15 mg/kg) administration): 12 h
Individual plasma concentration (mouse, intravenous bolus 3 mg/kg, 0.25 h, LLOQ 1.04 ng/mL, 3 mg/kg): 307.05 ng/mL and 225.35 ng/mL
Individual plasma concentration (mouse, intravenous bolus 3 mg/kg, 1 h, LLOQ 1.04 ng/mL, 3 mg/kg): 184.80 ng/mL and 140.18 ng/mL
Individual plasma concentration (mouse, intravenous bolus 3 mg/kg, 2 h, LLOQ 1.04 ng/mL, 3 mg/kg): 76.60 ng/mL and 47.02 ng/mL
Individual plasma concentration (mouse, intravenous bolus 3 mg/kg, 4 h, LLOQ 1.04 ng/mL, 3 mg/kg): 27.25 ng/mL and 38.13 ng/mL
Individual plasma concentration (mouse, intravenous bolus 3 mg/kg, 8 h, LLOQ 1.04 ng/mL, 3 mg/kg): 5.65 ng/mL and 11.10 ng/mL
Individual plasma concentration (mouse, intravenous bolus 3 mg/kg, 12 h, BLQ = below LLOQ 1.04 ng/mL, 3 mg/kg): 2.20 ng/mL and BLQ
Individual plasma concentration (mouse, intravenous bolus 3 mg/kg, 12 h, BLQ = below LLOQ 1.04 ng/mL, listed as ICQH, 3 mg/kg): 1.68 ng/mL and 2.20 ng/mL and BLQ
Mean plasma concentration [2]: BLQ
Individual plasma concentration [2]: BLQ
Time of maximum concentration post-dose (mouse, oral solution 15 mg/kg): 1.0 h
Individual plasma concentration (mouse, oral solution 15 mg/kg, 8 h, LLOQ 1.04 ng/mL): 71.29 ng/mL and 78.06 ng/mL
Mean plasma concentration [3]: BLQ
Individual plasma concentration [3]: BLQ
Compound: C(=NNc1cccc2cccnc12)c1c[nH]c2ccccc12 [Compound C3, 1H-indole-3-carbaldehyde quinolin-8-ylhydrazone]
Individual plasma concentration (mouse, intravenous bolus 3 mg/kg, 0.083 h, LLOQ 1.04 ng/mL, 3 mg/kg): 2253.61 ng/mL and 1125.73 ng/mL and 75.62 b ng/mL
Individual plasma concentration (mouse, intravenous bolus 3 mg/kg, 0.083 h, LLOQ 1.04 ng/mL, listed as ICQH, 3 mg/kg): 2253.61 ng/mL and 1125.73 ng/mL and 75.62 ng/mL
Individual plasma concentration (mouse, intravenous bolus 3 mg/kg, 0.25 h, LLOQ 1.04 ng/mL, listed as ICQH, 3 mg/kg): 199.60 ng/mL and 307.05 ng/mL and 225.35 ng/mL
Individual plasma concentration (mouse, intravenous bolus 3 mg/kg, 0.5 h, LLOQ 1.04 ng/mL, 3 mg/kg): 388.25 ng/mL and 148.82 ng/mL and 339.56 ng/mL
Individual plasma concentration (mouse, intravenous bolus 3 mg/kg, 0.5 h, LLOQ 1.04 ng/mL, listed as ICQH, 3 mg/kg): 388.25 ng/mL and 148.82 ng/mL and 339.56 ng/mL
Individual plasma concentration (mouse, intravenous bolus 3 mg/kg, 1 h, LLOQ 1.04 ng/mL, listed as ICQH, 3 mg/kg): 184.80 ng/mL and 116.46 ng/mL and 140.18 ng/mL
Individual plasma concentration (mouse, intravenous bolus 3 mg/kg, 2 h, LLOQ 1.04 ng/mL, listed as ICQH, 3 mg/kg): 71.88 ng/mL and 76.60 ng/mL and 47.02 ng/mL
Individual plasma concentration (mouse, intravenous bolus 3 mg/kg, 4 h, LLOQ 1.04 ng/mL, listed as ICQH, 3 mg/kg): 42.37 ng/mL and 27.25 ng/mL and 38.13 ng/mL
Individual plasma concentration (mouse, intravenous bolus 3 mg/kg, 8 h, LLOQ 1.04 ng/mL, listed as ICQH, 3 mg/kg): 10.11 ng/mL and 5.65 ng/mL and 11.10 ng/mL
Individual plasma concentration (mouse, oral solution 15 mg/kg, 0.25 h, LLOQ 1.04 ng/mL): 53.05 ng/mL and 113.38 ng/mL and 254.20 ng/mL
Individual plasma concentration (mouse, oral solution 15 mg/kg, 0.25 h, LLOQ 1.04 ng/mL, listed as ICQH): 53.05 ng/mL and 113.38 ng/mL and 254.20 ng/mL
Individual plasma concentration (mouse, oral solution 15 mg/kg, 0.5 h, LLOQ 1.04 ng/mL): 96.22 ng/mL and 72.56 ng/mL and 273.76 ng/mL
Individual plasma concentration (mouse, oral solution 15 mg/kg, 0.5 h, LLOQ 1.04 ng/mL, listed as ICQH): 96.22 ng/mL and 72.56 ng/mL and 273.76 ng/mL
Individual plasma concentration (mouse, oral solution 15 mg/kg, 1 h, LLOQ 1.04 ng/mL): 143.63 ng/mL and 32.21 ng/mL and 422.48 ng/mL
Individual plasma concentration (mouse, oral solution 15 mg/kg, 1 h, LLOQ 1.04 ng/mL, listed as ICQH): 143.63 ng/mL and 32.21 ng/mL and 422.48 ng/mL
Individual plasma concentration (mouse, oral solution 15 mg/kg, 2 h, LLOQ 1.04 ng/mL): 51.85 ng/mL and 95.13 ng/mL and 142.67 ng/mL
Individual plasma concentration (mouse, oral solution 15 mg/kg, 2 h, LLOQ 1.04 ng/mL, listed as ICQH): 51.85 ng/mL and 95.13 ng/mL and 142.67 ng/mL
Individual plasma concentration (mouse, oral solution 15 mg/kg, 4 h, LLOQ 1.04 ng/mL): 185.50 ng/mL and 87.82 ng/mL and 164.88 ng/mL
Individual plasma concentration (mouse, oral solution 15 mg/kg, 4 h, LLOQ 1.04 ng/mL, listed as ICQH): 185.50 ng/mL and 87.82 ng/mL and 164.88 ng/mL
Individual plasma concentration (mouse, oral solution 15 mg/kg, 8 h, LLOQ 1.04 ng/mL, listed as ICQH): 76.65 ng/mL and 71.29 ng/mL and 78.06 ng/mL
Individual plasma concentration (mouse, oral solution 15 mg/kg, 12 h, LLOQ 1.04 ng/mL): 4.05 ng/mL and 11.47 ng/mL and 11.21 ng/mL
Individual plasma concentration (mouse, oral solution 15 mg/kg, 12 h, LLOQ 1.04 ng/mL, listed as ICQH): 4.05 ng/mL and 11.47 ng/mL and 11.21 ng/mL
